# Data published in publication PMC8967716, “Inhibition of calcium-triggered secretion by hydrocarbon-stapled peptides” (Nature, 2022).
# pKd: −log10 of the molar value. Values joined by “and” are separate entries in the source; they are usually repeats but may differ in a detail not shown here. Equal values may be shown once. “Also recorded” adds a separate entry of the source. Positions of bridges follow the written chain, without caps; N, C: chain ends. Non-standard residues stand in square brackets, D forms with d. Residues, ends and D or L forms follow the SMILES beside them. S5 = C=CCCC[C@](C)(N)C(=O)O
# How the values were obtained:
# airway SNAREs alone = test: Single-vesicle content mixing assay, airway SNAREs alone (VAMP8 vesicles); details: for Ca2+ independent fusion per sec: ED Fig 7k
# [1] = biological target: airway SNAREs, Syt2, Munc13-2*, Munc18-2, NSF and αSNAP (Rattus norvegicus, UniProt P29101); test: Single-vesicle content mixing assay, complete reconstitution; type: biochemical
# Protocol: For the complete reconstitution (Fig. 3), to form airway SM vesicles with reconstituted Stx3–Munc18-2 complex, we added the ‘disassembly factors’ (1 μM Munc18-2, 0.5 μM NSF, 5 μM αSNAP, 3 mM ATP and 3 mM Mg^2+) to tethered airway PM vesicles (Fig. 3b), according to previous work with neuronal proteins. This procedure results in tethered SM vesicles.
# [2] = tested on: MUC5AC secretion from primary human airway epithelial (HAE) cells; test: Mucin-secretion assay in HAE cells; details: 10 μM peptide 30 min; for ratio of experimental to baseline MUC5AC secretion, mean: mean of n = 4–5 ALI cultures
# [3] = CD spectroscopy, α-helical content; type: physicochemical; details: 100 μM peptide in PBS pH 7.4, [φ]222obs relative to model helical decapeptide
# Protocol: CD spectra were measured using the AVIV stop-flow CD spectropolarimeter at 190–250 nm using a cell with a 1 mm path length. […] For the correction of the baseline error, the signal from a blank run with PBS buffer was subtracted from all the experimental spectra. The α-helical content of each peptide was calculated by dividing the mean residue ellipticity [φ]222obs by the reported [φ]222obs for a model helical decapeptide.
# [4] = biological target: Syt1 C2B(QM) quintuple mutant (Rattus norvegicus, UniProt P21707, E295A/R281A/R398A/R399A/Y338W); test: Bulk fluorescence anisotropy binding; details: Cy3-labelled SP9, fluorescence anisotropy
# [5] = biological target: reconstituted airway epithelial SNAREs (Stx3, SNAP-23, VAMP8) and Syt2 (Rattus norvegicus, UniProt P29101); test: Single-vesicle content mixing assay, simple reconstitution (SR); details: for Ca2+ independent fusion per sec: ED Fig 7d
# [6] = tested on: reconstituted neuronal SNAREs (Stx1A, SNAP-25A, VAMP2) and Syt1; test: Single-vesicle content mixing assay, neuronal SNAREs and Syt1; type: biochemical
# neuronal SNAREs alone = test: Single-vesicle content mixing assay, neuronal SNAREs alone (VAMP2 vesicles); type: biochemical
# airway lumenal mucus = test: Airway lumenal mucus occlusion in peptide-treated mice; details: IL-13 metaplasia, 200 μM peptide by microsprayer 30 min before methacholine; sections at 500 µm intervals; each value one mouse
# [7] = biological target: SP9–Cy3 (hydrocarbon-stapled SNAP-25A fragment SP9 labelled with Cy3 at the C terminus); test: fluorescence polarisation; bulk fluorescence anisotropy; 10 nM Cy3-labelled peptide mixed with varying concentrations of unlabelled C2B domain; TBS (20 mM Tris, pH 7.5, 150 mM NaCl, 0.5 mM TCEP), 27.2 °C; Hill equation fit with the Hill coefficient constrained to 1
# [8] = 10 μM peptide, each value one repeat experiment
# airway SNAREs, Syt2, Munc13-2*, Munc18-2, NSF and αSNAP, sequence (P29101 whole entry): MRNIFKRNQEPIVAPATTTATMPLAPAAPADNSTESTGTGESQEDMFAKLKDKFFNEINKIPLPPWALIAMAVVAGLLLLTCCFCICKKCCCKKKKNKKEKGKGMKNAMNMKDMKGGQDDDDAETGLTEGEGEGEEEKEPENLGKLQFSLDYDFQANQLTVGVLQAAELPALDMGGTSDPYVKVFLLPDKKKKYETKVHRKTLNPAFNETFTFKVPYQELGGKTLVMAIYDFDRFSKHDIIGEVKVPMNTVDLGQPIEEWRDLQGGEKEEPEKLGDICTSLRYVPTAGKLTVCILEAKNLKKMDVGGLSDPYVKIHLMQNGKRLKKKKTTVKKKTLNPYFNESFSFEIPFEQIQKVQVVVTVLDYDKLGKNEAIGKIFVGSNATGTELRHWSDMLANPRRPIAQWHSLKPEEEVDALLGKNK
# reconstituted airway epithelial SNAREs (Stx3, SNAP-23, VAMP8) and Syt2, sequence (P29101 whole entry, the tested form may be a part): as the sequence (P29101 whole entry) above
# Syt1 C2B (C2B domain of synaptotagmin-1, amino acid range 271–421), sequence (P21707 271-421): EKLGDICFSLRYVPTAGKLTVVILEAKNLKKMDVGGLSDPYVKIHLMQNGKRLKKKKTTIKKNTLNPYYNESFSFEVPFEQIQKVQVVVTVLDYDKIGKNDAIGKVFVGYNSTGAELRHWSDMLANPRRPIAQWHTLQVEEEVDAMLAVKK
# Syt2 C2B (C2B domain of synaptotagmin-2, amino acid range 272–422), sequence (P29101 272-422): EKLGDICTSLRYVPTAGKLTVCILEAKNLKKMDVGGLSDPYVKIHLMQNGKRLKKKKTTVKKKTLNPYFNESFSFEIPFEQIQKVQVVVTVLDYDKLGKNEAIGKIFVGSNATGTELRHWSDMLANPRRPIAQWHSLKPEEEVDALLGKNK
# Syt1 C2B(QM) quintuple mutant, sequence (P21707 271-421 R281A/E295A/Y338W/R398A/R399A): as the sequence (P21707 271-421) above, with R11A, E25A, Y68W, R128A, R129A counted along it
compound,measurement,setting,value
"CC[C@H](C)[C@H](NC(=O)[C@]1(C)CCCC=CCCC[C@](C)(NC(=O)[C@H](CCC(=O)O)NC(=O)[C@H](CCC(=O)O)NC(C)=O)C(=O)N[C@@H](CCCCN)C(=O)N[C@@H](CC(=O)O)C(=O)N[C@@H](C)C(=O)N1)C(=O)N[C@@H](CCCNC(=N)N)C(=O)N[C@@]1(C)CCCC=CCCC[C@@](C)(C(=O)N[C@@H](CC(=O)O)C(=O)N[C@@H](CCC(=O)O)C(=O)N[C@@H](CCC(N)=O)C(=O)N[C@@H](CS)C(N)=O)NC(=O)[C@H](CCSC)NC(=O)[C@H](C(C)C)NC(=O)[C@H](CC(C)C)NC1=O [SP9] (Ac-EE[S5]KDA[S5]IR[S5]LVM[S5]DEQC-NH2; staple 3-7, 10-14)",Ca2+ independent fusion per sec,airway SNAREs alone; repeat 1,0.0003451
same,Ca2+ independent fusion per sec,airway SNAREs alone; repeat 2,0.000303
same,Ca2+ independent fusion per sec,airway SNAREs alone; repeat 3,0.0004574
same,Ca2+ independent fusion per sec,airway SNAREs alone; repeat 4,0.0004141
same,effect on vesicle fusion without Syt2 (VAMP8 vesicles),airway SNAREs alone; SP9 vs no peptide,no effect; also recorded: inhibitory effect of SP9 was eliminated
same,effect on Ca2+-independent fusion probability,[1]; 10 μM SP9,only moderately reduced; also recorded: relatively modest
same,"effect on Ca2+-triggered fusion amplitude, cumulative fusion probability and synchronization","[1]; 10 μM SP9, 50 μM and 500 μM Ca2+",strongly inhibited
same,Ca2+ independent fusion per sec (average probability),"[1]; 10 μM SP9, each value one repeat experiment",0.0004902 and 0.0004307 and 0.0004714 and 0.0004646 and 0.0003557 and 0.0002469
same,Vesicle association,"[1]; 10 μM SP9 added with SG vesicles, each value one repeat experiment",88 and 78 and 74 and 91
same,decrease in the Ca2+-triggered fusion amplitude,[1]; 10 μM SP9 vs no peptide,eight to tenfold decrease
same,effect on vesicle association,[1]; 10 μM SP9 vs no peptide,no effect
same,triggered fusion accumulative probability (within 1 min),"[1]; 50uM Ca2+, 10 μM SP9, each value one repeat experiment",0.0662 and 0.06402 and 0.09074
same,triggered fusion accumulative probability (within 1 min),"[1]; 500uM Ca2+, 10 μM SP9, each value one repeat experiment",0.08824 and 0.05943 and 0.07879
same,"ratio of experimental to baseline MUC5AC secretion, mean",[2]; IL13+ATP (100 µM ATP),3.4860
same,"ratio of experimental to baseline MUC5AC secretion, mean","[2]; IL13, no ATP",0.7820
same,"ratio of baseline to reference wash MUC5AC secretion, mean","[2]; IL-13 cultures, mean of n = 8–10 ALI cultures",0.7120
same,helicity in solution,[3],substantial helical content
same,binding to quintuple mutant Syt1 C2B(QM),[4],does not bind
same,Ca2+ independent fusion per sec (average probability),"[5]; 10 μM peptide added with SG vesicles, each value one repeat experiment",0.0006901 and 0.0004797 and 0.000382 and 0.0006421
same,effect on Ca2+-independent fusion probability and Ca2+-triggered cumulative fusion probability,[5]; 10 µM peptide vs no peptide,"reduced both Ca^2+-triggered and, to a lesser degree, Ca^2+-independent fusion"
same,Ca2+ independent fusion per sec,[5]; repeat 1,0.0006901
same,Ca2+ independent fusion per sec,[5]; repeat 2,0.0004797
same,Ca2+ independent fusion per sec,[5]; repeat 3,0.000382
same,Ca2+ independent fusion per sec,[5]; repeat 4,0.0006421
same,effect on vesicle association,[5]; SP9 vs no peptide,no effect
same,Vesicle association,"[6]; 10 μM peptide added with SV vesicles, each value one repeat experiment",248 and 327 and 271
same,effect on Ca2+-triggered and Ca2+-independent fusion,[6]; SP9 vs no peptide,reduced both Ca^2+-triggered fusion and Ca^2+-independent fusion
same,effect on vesicle association,[6]; SP9 vs no peptide,no effect
same,Ca2+ independent fusion per sec (average probability),neuronal SNAREs alone; [8],0.0007718 and 0.0006567 and 0.001053 and 0.0009453
same,Vesicle association,neuronal SNAREs alone; [8],135 and 160 and 137
same,effect on vesicle fusion without Syt1 (VAMP2 vesicles),neuronal SNAREs alone; SP9 vs no peptide,no effect; also recorded: little effect
Ac-EESKDAGIRTLVMLDEQ-NH2 [P9],"sum of lumenal mucus cross-sectional area, caudal lobe of the right lung",airway lumenal mucus,0.382 and 0.464 and 0.617 and 0.201 and 0.286 and 0.712 and 0.372
"Syt1 C2B (C2B domain of synaptotagmin-1, amino acid range 271–421) (from UniProt P21707 271-421) (domain or fragment)",pKd,[7],4.62
"Syt2 C2B (C2B domain of synaptotagmin-2, amino acid range 272–422) (from UniProt P29101 272-422) (domain or fragment)",pKd,[7],4.46
